This is an account of results in ChEMBL document CHEMBL4627309, “Tetra-aryl cyclobutane and stilbenes from the rhizomes of Rheum undulatum and their α-glucosidase inhibitory activity: Biological evaluation, kinetic analysis, and molecular docking simulation” (Bioorg Med Chem Lett, 2020).

Each structure is given as a SMILES string. pIC50, pKi: −log10 of the molar value. Activity calls are given as the source filed them. The calls are words filed in the database; no cut-off is given here. A value given as a limit tells only on which side of the number the result lay.

Biological target in the first experiment: not listed separately
Kind of experiment: Inhibition of alpha-glucosidase (unknown origin) using p-NPG as substrate by spectrophotometric analysis. Also noted: species or system Homo sapiens.
`COc1ccc(/C=C/c2cc(O)cc(O[C@@H]3O[C@H](CO)[C@@H](O)[C@H](O)[C@H]3O)c2)cc1O` [RHAPONTIN]: the pIC50 (usually −log10 of the IC50, conventionally taken in molar units) was less than 4.00.
In turn, `Cc1cc(O)c2c(c1)C(=O)c1cccc(O[C@@H]3O[C@H](CO)[C@@H](O)[C@H](O)[C@H]3O)c1C2=O` [PULMATIN] gave a pIC50 of less than 4.00.
`COc1cc(O[C@@H]2O[C@H](CO)[C@@H](O)[C@H](O)[C@H]2O)c2c(c1)C(=O)C(C)=C(C(C)=O)C2=O` gave a pIC50 of less than 4.00.
In turn, `COc1cc(O[C@@H]2O[C@H](CO)[C@@H](O)[C@H](O)[C@H]2O)c2c(O)c(C(C)=O)c(C)cc2c1` showed a pIC50 of less than 4.00.
The compound `COc1ccc(/C=C/c2cc(O)cc(O[C@@H]3O[C@H](COC(=O)c4ccc(O)cc4)[C@@H](O)[C@H](O)[C@H]3O)c2)cc1` had a pIC50 of less than 4.00.
For the compound `COc1ccc(/C=C/c2cc(O)cc(O[C@@H]3O[C@H](COC(C)=O)[C@@H](O)[C@H](O)[C@H]3O)c2)cc1O`, the pIC50 is less than 4.00.
As to `COc1ccc(/C=C/c2cc(O)cc(O)c2)cc1O`, the pIC50 was 4.81.
Turning to `C[C@H]1O[C@H](O[C@H]2[C@H](O)[C@@H](O)[C@@H](O[C@H]3[C@H](O)[C@@H](O)C(O)O[C@@H]3CO)O[C@@H]2CO)[C@H](O)[C@@H](O)[C@@H]1N[C@H]1C=C(CO)[C@@H](O)[C@H](O)[C@H]1O` (some centres undefined) [ACARBOSE], the pIC50 was 3.90. Compared with the last compound, the pIC50 is 0.91 log units lower.
In turn, `COc1ccc([C@@H]2[C@@H](c3cc(O)cc(O)c3)[C@@H](c3cc(O)cc(O)c3)[C@@H]2c2ccc(OC)c(O)c2)cc1O` showed a pIC50 of 4.10.
Compound `COc1ccc(/C=C\c2cc(O)cc(O[C@@H]3O[C@H](COC(=O)/C=C/c4ccc(O)cc4)[C@@H](O)[C@H](O)[C@H]3O)c2)cc1` showed a pIC50 of less than 4.00.
Compound `Cc1cc(O[C@@H]2O[C@H](CO)[C@@H](O)[C@H](O)[C@H]2O)c2c(c1)C(=O)c1cccc(O)c1C2=O` [CHRYSOPHANEIN] had a pIC50 of less than 4.00.
Still for that read-out and setting: as for `OC[C@H]1O[C@@H](Oc2cc(O)cc(/C=C/c3ccc(O)cc3)c2)[C@H](O)[C@@H](O)[C@@H]1O` [PICEID], the figure is less than 4.00.

The species entered for another experiment is Homo sapiens. Put plainly: Mixed inhibition of alpha-glucosidase (unknown origin) using p-NPG as substrate by Lineweaver-Burk plot analysis.
For `COc1ccc(/C=C/c2cc(O)cc(O)c2)cc1O`, the inhibition result was “Active”.

Biological target in the next experiment: not listed separately
Kind of experiment: Inhibition of alpha-glucosidase (unknown origin) using p-NPG as substrate by Dixon plot analysis. Also noted: species or system Homo sapiens.
In the case of `COc1ccc(/C=C/c2cc(O)cc(O)c2)cc1O`, the pKi (usually the negative decadic logarithm of the Ki, by convention in mol/L) is 4.82.
